Results from patent US8106004B2, “Methods of inhibiting tumor cell aggressiveness using the microenvironment of human embryonic stem cells” (Children's Memorial Hospital, priority 2006, dated 2012).

Experiments:
[1] = test system: MDA-MB-231 breast carcinoma cells; assay: In vivo tumor formation, orthotopic mouse model, MDA-MB-231 breast carcinoma cells; conditions: 500,000 MDA-MB-231 cells treated with Morpholino before injection
Source text: (A) In vivo tumor formation in a mouse injected with MDA-MB-231 cells pre-exposed for 3 days to either a control matrix (Matrigel) or a matrix conditioned by hESCs (H9 CMTX) (n=10) (B) C81-61 cells, transfected with either an empty vector or a Nodal expression construct (n=5), and (C) MDA-MB-231 cells treated with either MO^Control or MO^Nodal (n=10). […] (D) The ratio of tumor cell proliferation to apoptosis for C8161 and MDA-MB-231 derived tumors, determined by immunohistochemical staining for Ki67 and terminal deoxynucleotidyl transferase biotin-dUTP nick-end labeling (TUNEL). Prior to injection into a mouse, C8161 and MDA-MB-231 cells were cultured for 3 days on control or hESC conditioned (H9 CMTX) matrices, or treated with MO^Nodal to knock down Nodal expression. […] Proliferation is indicated by Ki67 staining and apoptotic nuclei were detected with confocal microscopy as red staining localized to the nuclei of apoptotic C8161 or MDA-MB-231 cells. […]
The effects of the hESC microenvironment on the in vivo tumorigenicity of melanoma and breast carcinoma cells were examined using orthotopic mouse models. […] The […] C81-61 melanoma cell line was unable to form palpable tumors when 500,000 cells were injected, and using gross observation and histology 5.5 weeks after inoculation, these tumor cells could not be detected at the site of injection. […]

C8161 melanoma cells = assay: In vivo tumor cell proliferation-to-apoptosis ratio (Ki67/TUNEL), C8161 derived tumors; conditions: C8161 treated before injection into mouse
Source text: (A) In vivo tumor formation in a mouse injected with MDA-MB-231 cells pre-exposed for 3 days to either a control matrix (Matrigel) or a matrix conditioned by hESCs (H9 CMTX) (n=10) (B) C81-61 cells, transfected with either an empty vector or a Nodal expression construct (n=5), and (C) MDA-MB-231 cells treated with either MO^Control or MO^Nodal (n=10). […] (D) The ratio of tumor cell proliferation to apoptosis for C8161 and MDA-MB-231 derived tumors, determined by immunohistochemical staining for Ki67 and terminal deoxynucleotidyl transferase biotin-dUTP nick-end labeling (TUNEL). Prior to injection into a mouse, C8161 and MDA-MB-231 cells were cultured for 3 days on control or hESC conditioned (H9 CMTX) matrices, or treated with MO^Nodal to knock down Nodal expression. […] (E) Immunohistochemical analysis of Ki67 expression (red/brown) and TUNEL staining in orthotopic melanoma (C8161) and breast carcinoma (MDA-MB-231) tumors. […] Proliferation is indicated by Ki67 staining and apoptotic nuclei were detected with confocal microscopy as red staining localized to the nuclei of apoptotic C8161 or MDA-MB-231 cells. […]
In order to establish a mechanism by which exposure to the hESC microenvironment abrogates tumorigenicity, the effects of this treatment on the in vivo tumor cell proliferation-to-apoptosis ratio were analyzed. […]

With “MO^Nodal: FITC-conjugated anti-sense Morpholino to Nodal, 5′-AAGCAGCACCTCCAGCCCTTATATC-3′ [SEQ ID NO: 20] (all phosphorodiamidate morpholino (PMO); FITC conjugated, position not given here)” the tumorigenicity [1] was “significant reduction” and the “ratio of proliferation to apoptosis” value (C8161 melanoma cells) was “decreased”.
